The text below walks through data of patent US10543212B2, “Substituted amines for treating cardiac diseases” (Cardurion Pharmaceuticals, LLC, priority 2017, dated 2020).

Structures are written as SMILES. Structures can show the parent of a compound that is named as a salt.

The target of this assay is T1, Full-length, GST-tagged, human CaMKIIδ (Homo sapiens, UniProt Q13557).
T1 construct: Full-Length, Glutathione-S-Transferase(GST)-Tagged, Human CaMKIIδ was purchased from Carna Biosciences; purchased Carna Biosciences 02-111
T1 sequence (Q13557 1-478 isoform Q13557-12): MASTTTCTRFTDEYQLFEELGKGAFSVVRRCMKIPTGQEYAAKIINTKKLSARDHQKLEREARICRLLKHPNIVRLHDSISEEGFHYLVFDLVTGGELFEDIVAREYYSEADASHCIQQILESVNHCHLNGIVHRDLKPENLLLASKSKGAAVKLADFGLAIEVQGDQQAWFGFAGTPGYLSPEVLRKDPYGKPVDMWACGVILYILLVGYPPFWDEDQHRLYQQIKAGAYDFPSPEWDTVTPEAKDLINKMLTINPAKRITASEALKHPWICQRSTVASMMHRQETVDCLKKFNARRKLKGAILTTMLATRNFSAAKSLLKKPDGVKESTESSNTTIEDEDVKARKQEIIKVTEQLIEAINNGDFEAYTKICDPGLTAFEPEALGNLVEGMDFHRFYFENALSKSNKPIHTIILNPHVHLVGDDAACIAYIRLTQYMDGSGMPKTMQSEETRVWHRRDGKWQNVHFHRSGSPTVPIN
Put plainly: CaMKIIδ binding assay (TR-FRET with BODIPY-labeled probe ligand). Particulars: Table 2; CaMKIIδ binding assay, activity given as class A/B/C. An outline of the steps: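 Compounds were tested as 4-fold, eight-point series for 1 hr at room temperature, and IC50 was obtained by logistic fitting against a 3 μM parent-compound control. Signal came from displacement of a 300 nM BODIPY ligand from 0.5 nM GST-CaMKIIδ, detected via Tb-anti-GST in calmodulin/Ca2+ (pH 7.6).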
`Cc1ccc(-c2cnc(Nc3cn([C@H]4CC[C@@H](N5CCOCC5)CC4)nc3C(F)(F)F)nc2)cc1O[C@@H](C)Cn1cnnn1` [Example 809, 5-(3-(((S)-1-(1H-tetrazol-1-yl)propan-2-yl)oxy)-4-methylphenyl)-N-(1-(cis-4-morpholinocyclohexyl)-3-(trifluoromethyl)-1H-pyrazol-4-yl)pyrimidin-2-amine] showed an IC50 of 10 to 100 nM.
The compound `Cc1ccc(-c2cnc(Nc3cn([C@H]4CC[C@H](N5CCOCC5)CC4)nc3C(F)(F)F)nc2)cc1O[C@@H](C)Cn1cnnn1` [Example 810, 5-(3-(((S)-1-(1H-tetrazol-1-yl)propan-2-yl)oxy)-4-methylphenyl)-N-(1-(trans-4-morpholinocyclohexyl)-3-(trifluoromethyl)-1H-pyrazol-4-yl)pyrimidin-2-amine] had an IC50 of less than 10 nM.
In turn, `Cc1ccc(-c2cnc(Nc3cn([C@H]4CC[C@H](N5CCOCC5)CC4)nc3OCC(F)(F)F)nc2)cc1O[C@@H](C)Cn1cnnn1` [Example 811, 5-(3-(((S)-1-(1H-tetrazol-1-yl)propan-2-yl)oxy)-4-methylphenyl)-N-(1-(trans-4-morpholinocyclohexyl)-3-(2,2,2-trifluoroethoxy)-1H-pyrazol-4-yl)pyrimidin-2-amine] showed an IC50 of less than 10 nM.
The result for `Cc1ccc(-c2cnc(Nc3cn([C@H]4CC[C@@H](N5CCOCC5)CC4)nc3OCC(F)(F)F)nc2)cc1O[C@@H](C)Cn1cnnn1` [Example 812, 5-(3-(((S)-1-(1H-tetrazol-1-yl)propan-2-yl)oxy)-4-methylphenyl)-N-(1-(cis-4-morpholinocyclohexyl)-3-(2,2,2-trifluoroethoxy)-1H-pyrazol-4-yl)pyrimidin-2-amine] reads less than 10 nM; that for `C[C@@H](Cn1cnnn1)Oc1cc(-c2cnc(Nc3cn([C@H]4CC[C@H](N5CCOCC5)CC4)nc3OCC(F)(F)F)nc2)ccc1F` [Example 813, 5-(3-(((S)-1-(1H-tetrazol-1-yl)propan-2-yl)oxy)-4-fluorophenyl)-N-(1-(trans-4-morpholinocyclohexyl)-3-(2,2,2-trifluoroethoxy)-1H-pyrazol-4-yl)pyrimidin-2-amine], less than 10 nM; that for `C[C@@H](Cn1cnnn1)Oc1cc(-c2cnc(Nc3cn([C@H]4CC[C@@H](N5CCOCC5)CC4)nc3OCC(F)(F)F)nc2)ccc1F` [Example 814, 5-(3-(((S)-1-(1H-tetrazol-1-yl)propan-2-yl)oxy)-4-fluorophenyl)-N-(1-(cis-4-morpholinocyclohexyl)-3-(2,2,2-trifluoroethoxy)-1H-pyrazol-4-yl)pyrimidin-2-amine], 10 to 100 nM.
With `CC(C)N1CC2(CC(n3cc(Nc4ncc(-c5ccc(Cl)c(O[C@@H](C)Cn6cnnn6)c5)cn4)c(OCC(F)(F)F)n3)C2)C1` [Example 815, (S)-5-(3-((1-(1H-tetrazol-1-yl)propan-2-yl)oxy)-4-chlorophenyl)-N-(1-(2-isopropyl-2-azaspiro[3.3]heptan-6-yl)-3-(2,2,2-trifluoroethoxy)-1H-pyrazol-4-yl)pyrimidin-2-amine] the figure was less than 10 nM.
With `C[C@@H](Cn1cnnn1)Oc1cc(-c2cnc(Nc3cn(CC(C)(C)O)nc3OCC(F)(F)F)nc2)ccc1Cl` [Example 816, (S)-1-(4-((5-(3-((1-(1H-tetrazol-1-yl)propan-2-yl)oxy)-4-chlorophenyl)pyrimidin-2-yl)amino)-3-(2,2,2-trifluoroethoxy)-1H-pyrazol-1-yl)-2-methylpropan-2-ol] the figure was less than 10 nM; with `C[C@@H](Cn1cnnn1)Oc1cc(-c2cnc(Nc3cn([C@H]4CC[C@H](N5CCOCC5)CC4)nc3OCC(F)(F)F)nc2)ccc1C#N` [Example 817, 2-(((S)-1-(1H-tetrazol-1-yl)propan-2-yl)oxy)-4-(2-((1-(trans-4-morpholinocyclohexyl)-3-(2,2,2-trifluoroethoxy)-1H-pyrazol-4-yl)amino)pyrimidin-5-yl)benzonitrile hydrochloride], less than 10 nM.
With `C[C@@H](Cn1cnnn1)Oc1cc(-c2cnc(Nc3cn([C@H]4CC[C@@H](N5CCOCC5)CC4)nc3OCC(F)(F)F)nc2)ccc1C#N` [Example 818, 2-(((S)-1-(1H-tetrazol-1-yl)propan-2-yl)oxy)-4-(2-((1-(cis-4-morpholinocyclohexyl)-3-(2,2,2-trifluoroethoxy)-1H-pyrazol-4-yl)amino)pyrimidin-5-yl)benzonitrile], the half-inhibitory concentration (IC50) is less than 10 nM.
`C[C@@H](Cn1cc(F)cn1)Oc1cc(-c2cnc(Nc3cn(C4CCN(C5CCOCC5)CC4)nc3OCC(F)(F)F)nc2)ccc1C#N` [Example 819, (S)-2-((1-(4-fluoro-1H-pyrazol-1-yl)propan-2-yl)oxy)-4-(2-((1-(1-(tetrahydro-2H-pyran-4-yl)piperidin-4-yl)-3-(2,2,2-trifluoroethoxy)-1H-pyrazol-4-yl)amino)pyrimidin-5-yl)benzonitrile] yielded an IC50 of 10 to 100 nM.
Compound `C[C@@H](Cn1cnnn1)Oc1cc(-c2cnc(Nc3cn([C@H]4CC[C@@H](N5CCOCC5)CC4)nc3OC3COC3)nc2)ccc1Cl` [Example 820, 5-(3-(((S)-1-(1H-tetrazol-1-yl)propan-2-yl)oxy)-4-chlorophenyl)-N-(1-(cis-4-morpholinocyclohexyl)-3-(oxetan-3-yloxy)-1H-pyrazol-4-yl)pyrimidin-2-amine] came in with an IC50 of less than 10 nM.
`C[C@@H](Cn1cnnn1)Oc1cc(-c2cnc(Nc3cn([C@H]4CC[C@H](N5CCOCC5)CC4)nc3OC3COC3)nc2)ccc1Cl` [Example 821, 5-(3-(((S)-1-(1H-tetrazol-1-yl)propan-2-yl)oxy)-4-chlorophenyl)-N-(1-(trans-4-morpholinocyclohexyl)-3-(oxetan-3-yloxy)-1H-pyrazol-4-yl)pyrimidin-2-amine] yielded an IC50 of less than 10 nM.
On to `C[C@@H](Cn1cnnn1)Oc1cc(-c2cnc(Nc3cn([C@H]4CC[C@H](N5CC6(COC6)C5)CC4)nc3C(F)(F)F)nc2)ccc1Cl` [Example 822, 5-(3-(((S)-1-(1H-tetrazol-1-yl)propan-2-yl)oxy)-4-chlorophenyl)-N-(1-(trans-4-(2-oxa-6-azaspiro[3.3]heptan-6-yl)cyclohexyl)-3-(trifluoromethyl)-1H-pyrazol-4-yl)pyrimidin-2-amine], for which the IC50 was less than 10 nM.
For the compound `C[C@@H](Cn1cnnn1)Oc1cc(-c2cnc(Nc3cn([C@H]4CC[C@@H](N5CC6(COC6)C5)CC4)nc3C(F)(F)F)nc2)ccc1Cl` [Example 823, 5-(3-(((S)-1-(1H-tetrazol-1-yl)propan-2-yl)oxy)-4-chlorophenyl)-N-(1-(cis-4-(2-oxa-6-azaspiro[3.3]heptan-6-yl)cyclohexyl)-3-(trifluoromethyl)-1H-pyrazol-4-yl)pyrimidin-2-amine], the IC50 was less than 10 nM.
The result for `C[C@@H](Cn1cnnn1)Oc1cc(-c2cnc(Nc3cn(C4CCNCC4)nc3OCCF)nc2)ccc1Cl` [Example 824, (S)-5-(3-((1-(1H-tetrazol-1-yl)propan-2-yl)oxy)-4-chlorophenyl)-N-(3-(2-fluoroethoxy)-1-(piperidin-4-yl)-1H-pyrazol-4-yl)pyrimidin-2-amine] reads less than 10 nM; that for `C[C@@H](Cn1cnnn1)Oc1cc(-c2cnc(Nc3cn(C4CCN(C5CCOCC5)CC4)nc3OCCF)nc2)ccc1Cl` [Example 825, (S)-5-(3-((1-(1H-tetrazol-1-yl)propan-2-yl)oxy)-4-chlorophenyl)-N-(3-(2-fluoroethoxy)-1-(1-(tetrahydro-2H-pyran-4-yl)piperidin-4-yl)-1H-pyrazol-4-yl)pyrimidin-2-amine], less than 10 nM.
With `C[C@@H](Cn1cnnn1)Oc1cc(-c2cnc(Nc3cn(C4CCN(C5CCC5)CC4)nc3OCCF)nc2)ccc1Cl` [Example 826, (S)-5-(3-((1-(1H-tetrazol-1-yl)propan-2-yl)oxy)-4-chlorophenyl)-N-(1-(1-cyclobutylpiperidin-4-yl)-3-(2-fluoroethoxy)-1H-pyrazol-4-yl)pyrimidin-2-amine] the figure was less than 10 nM; with `C[C@@H](Cn1cnnn1)Oc1cc(-c2cnc(Nc3cn([C@H]4CC[C@H](N5CC6(COC6)C5)CC4)nc3OCC(F)F)nc2)ccc1Cl` [Example 827, 5-(3-(((S)-1-(1H-tetrazol-1-yl)propan-2-yl)oxy)-4-chlorophenyl)-N-(1-(trans-4-(2-oxa-6-azaspiro[3.3]heptan-6-yl)cyclohexyl)-3-(2,2-difluoroethoxy)-1H-pyrazol-4-yl)pyrimidin-2-amine], less than 10 nM; with `C[C@@H](Cn1cnnn1)Oc1cc(-c2cnc(Nc3cn([C@H]4CC[C@@H](N5CC6(COC6)C5)CC4)nc3OCC(F)F)nc2)ccc1Cl` [Example 828, 5-(3-(((S)-1-(1H-tetrazol-1-yl)propan-2-yl)oxy)-4-chlorophenyl)-N-(1-(cis-4-(2-oxa-6-azaspiro[3.3]heptan-6-yl)cyclohexyl)-3-(2,2-difluoroethoxy)-1H-pyrazol-4-yl)pyrimidin-2-amine], less than 10 nM.
The result for `C[C@@H](Cn1cc(F)cn1)Oc1cc(-c2cnc(Nc3cn([C@H]4CC[C@@H](N5CCOCC5)CC4)nc3OCC(F)(F)F)nc2)ccc1C#N` [Example 829, 2-(((S)-1-(4-fluoro-1H-pyrazol-1-yl)propan-2-yl)oxy)-4-(2-((1-(cis-4-morpholinocyclohexyl)-3-(2,2,2-trifluoroethoxy)-1H-pyrazol-4-yl)amino)pyrimidin-5-yl)benzonitrile] reads 10 to 100 nM; that for `C[C@@H](Cn1cc(F)cn1)Oc1cc(-c2cnc(Nc3cn([C@H]4CC[C@H](N5CCOCC5)CC4)nc3OCC(F)(F)F)nc2)ccc1C#N` [Example 830, 2-(((S)-1-(4-fluoro-1H-pyrazol-1-yl)propan-2-yl)oxy)-4-(2-((1-(trans-4-morpholinocyclohexyl)-3-(2,2,2-trifluoroethoxy)-1H-pyrazol-4-yl)amino)pyrimidin-5-yl)benzonitrile], less than 10 nM.
